Measured values taken from patent US20100210602A1, “PhoU (PerF), A P[…] INVOLVED IN [sequence] FORMATION AND TOLERANCE TO MULTIPLE ANTIBIOTICS AND [sequence] AS A DRUG TARGET FOR [sequence] BACTERIA” (priority 2006, published 2010).
In brackets after ≈: the same amount, converted by molar mass. Like-named read-outs stand apart in the source and are kept apart here.

Tests used:
wild type strain W3110 [1] = assay: microbe, parasite or virus in culture; type: cell-based, E. coli; details: Escherichia coli
PhoU mutant (JHU-313) [2] = assay: MIC/MBC by serial two-fold dilutions in LB broth; type: cell-based, E. coli; details: Escherichia coli, 16 h at 37° C.; for MBC: read-out: MBC; for MIC: read-out: MIC
JHU-313 containing pPhoU [3] = assay: MIC/MBC by serial two-fold dilutions in LB broth; type: cell-based, E. coli; details: Escherichia coli, 16 h at 37° C.; for MBC: read-out: MBC; for MIC: read-out: MIC
[4] = test system: JHU-313 containing pVector; assay: MIC/MBC by serial two-fold dilutions in LB broth; type: cell-based, E. coli; details: Escherichia coli, 16 h at 37° C.; for MBC: read-out: MBC; for MIC: read-out: MIC
wild type strain W3110 [5] = type: cell-based, E. coli
PhoU mutant (JHU-313) [6] = assay: Sequential antibiotic exposure of ampicillin persisters (CFU); type: cell-based, E. coli
wild type strain W3110 [7] = type: cell-based
[8] = test system: PhoU transposon mutant (JHU-313); type: cell-based
[9] = test system: PhoU deletion mutant (ΔphoU); type: cell-based
W3110 = assay: microbe, parasite or virus in culture; details: Escherichia coli, read-out: zone inhibition
JHU-313 = assay: Kirby-Bauer paper disc assay, zone inhibition; details: Escherichia coli, read-out: zone inhibition
JHU-313 containing pPhoU [10] = assay: Kirby-Bauer paper disc assay, zone inhibition; details: Escherichia coli, read-out: zone inhibition
[11] = test system: JHU-313 containing pVector; assay: Kirby-Bauer paper disc assay, zone inhibition; details: Escherichia coli, read-out: zone inhibition
[12] = 20 h after 1.5 h ampicillin pre-exposure, ampicillin 100, gentamicin 20, trimethoprim 16, norfloxacin 5 μg/ml
[13] = log phase, ampicillin 100 μg/ml, 1.5 h
[14] = log phase, 100 μg/ml, 24 hr exposure
[15] = log phase, 1 week, Ap100, Norf3
[16] = log phase, 5 hr, ampicillin 100 μg/ml (Ap100), norfloxacin 3 μg/ml (Norf3)
[17] = log phase, 3 days, Ap100, Norf3
[18] = log phase, 5 days, Ap100, Norf3
[19] = log phase, 10 days, Ap100, Norf3
[20] = log phase, ampicillin 100 μg/ml, norfloxacin 3 μg/ml
[21] = stationary phase, 100 μg/ml, 72 hr
[22] = stationary phase, 1 week, Ap100, Norf3
[23] = stationary phase, 5 hr, ampicillin 100 μg/ml (Ap100), norfloxacin 3 μg/ml (Norf3)
[24] = stationary phase, 1 day, Ap100, Norf3
[25] = stationary phase, 3 days, Ap100, Norf3
[26] = stationary phase, 5 days, Ap100, Norf3
[27] = stationary phase, 10 days, Ap100, Norf3

CC1(C)S[C@@H]2[C@H](NC(=O)[C@H](N)c3ccccc3)C(=O)N2[C@H]1C(=O)O [Ampicillin, ampicillin]
MBC (wild type strain W3110 [1]; W3110, LB broth, 16 h at 37° C., read-out: MBC): 12.5 µg/mL (≈ 35.8 µM) | MIC (wild type strain W3110 [1]; W3110, LB broth, 16 h at 37° C., read-out: MIC): 3.1 µg/mL (≈ 8.87 µM) | MBC (PhoU mutant (JHU-313) [2]): 6.25 µg/mL (≈ 17.9 µM) | MIC (PhoU mutant (JHU-313) [2]): 1.5 µg/mL (≈ 4.29 µM) | MBC (JHU-313 containing pPhoU [3]): 12.5 µg/mL (≈ 35.8 µM) | MIC (JHU-313 containing pPhoU [3]): 3.1 µg/mL (≈ 8.87 µM) | MBC [4]: 6.25 µg/mL (≈ 17.9 µM) | MIC [4]: 3.1 µg/mL (≈ 8.87 µM) | CFU after second antibiotic exposure (wild type strain W3110 [5]; [12]): 7 × 10^5 CFU/ml | decrease in CFU count (wild type strain W3110 [5]; log phase, 100 μg/ml, 1.5 hr): 3 log | CFU after ampicillin treatment (wild type strain W3110 [5]; [13]): 7 × 10^4 CFU/ml | CFU after second antibiotic exposure (PhoU mutant (JHU-313) [6]; [12]): 0 CFU/ml | decrease in CFU count (PhoU mutant (JHU-313) [6]; log phase, 100 μg/ml, 1.5 hr): 3 log | CFU after ampicillin treatment (PhoU mutant (JHU-313) [6]; [13]): 4 × 10^4 CFU/ml | viable bacteria left (wild type strain W3110 [7]; [14]): 10-100 | CFU (wild type strain W3110 [7]; [15]): 0 CFU | CFU (wild type strain W3110 [7]; [16]): 3 × 10^3 CFU | CFU (wild type strain W3110 [7]; log phase, 1 day, Ap100, Norf3): 10 CFU | CFU (wild type strain W3110 [7]; [17]): 0 CFU | CFU (wild type strain W3110 [7]; [18]): 0 CFU | CFU (wild type strain W3110 [7]; [19]): 0 CFU | time to killing of all cells (wild type strain W3110 [7]; [20]): all cells were killed by three days | viable cells (wild type strain W3110 [7]; [21]): 10^8 CFU/ml | CFU (wild type strain W3110 [7]; [22]): 5 × 10^6 CFU | CFU (wild type strain W3110 [7]; [23]): 5 × 10^9 CFU | CFU (wild type strain W3110 [7]; [24]): 3 × 10^9 CFU | CFU (wild type strain W3110 [7]; [25]): 1 × 10^8 CFU | CFU (wild type strain W3110 [7]; [26]): 3 × 10^7 CFU | CFU (wild type strain W3110 [7]; [27]): 2 × 10^5 CFU | killed more than the wild type strain ([8]; log phase, 100 μg/ml, 3 hr): about 100 fold | viable cells remaining [8, 14]: no viable cells remained | CFU [8, 15]: 0 CFU | CFU [8, 16]: 20 CFU | CFU ([8]; log phase, 1 day, Ap100, Norf3): 0-1 CFU | CFU [8, 17]: 0 CFU | CFU [8, 18]: 0 CFU | CFU [8, 19]: 0 CFU | time to killing of all cells [8, 20]: all cells were killed by three days | sterilization of culture [8, 21]: completely sterilized | CFU [8, 22]: 0 CFU | CFU [8, 23]: 2 × 10^8 CFU | CFU [8, 24]: 1 × 10^7 CFU | CFU [8, 25]: 0 CFU | CFU [8, 26]: 0 CFU | CFU [8, 27]: 0 CFU | CFU [9, 15]: 0 CFU | CFU [9, 16]: 6 × 10^2 CFU | CFU ([9]; log phase, 1 day, Ap100, Norf3): 0-1 CFU | CFU [9, 17]: 0 CFU | CFU [9, 18]: 0 CFU | CFU [9, 19]: 0 CFU | time to killing of all cells [9, 20]: all cells were killed by three days | CFU [9, 22]: 0 CFU | CFU [9, 23]: 6 × 10^8 CFU | CFU [9, 25]: 0 CFU | CFU [9, 26]: 0 CFU | CFU [9, 27]: 0 CFU | zone of inhibition at 1.5 µg/mL (W3110): 21 mm | zone of inhibition at 6 µg/mL (W3110): 25 mm | zone of inhibition at 25 µg/mL (W3110): 28 mm | zone of inhibition at 100 µg/mL (W3110): 35 mm | zone of inhibition at 1.5 µg/mL (JHU-313): 25 mm | zone of inhibition at 6 µg/mL (JHU-313): 30 mm | zone of inhibition at 25 µg/mL (JHU-313): 35 mm | zone of inhibition at 100 µg/mL (JHU-313): 40 mm | zone of inhibition at 1.5 µg/mL (JHU-313 containing pPhoU [10]): 25 mm | zone of inhibition at 6 µg/mL (JHU-313 containing pPhoU [10]): 32 mm | zone of inhibition at 25 µg/mL (JHU-313 containing pPhoU [10]): 36 mm | zone of inhibition at 100 µg/mL (JHU-313 containing pPhoU [10]): 40 mm | zone of inhibition at 1.5 µg/mL [11]: 27 mm | zone of inhibition at 6 µg/mL [11]: 34 mm | zone of inhibition at 25 µg/mL [11]: 40 mm | zone of inhibition at 100 µg/mL [11]: 45 mm

CN(C)[C@@H]1C(O)=C(C(N)=O)C(=O)[C@@]2(O)C(O)=C3C(=O)c4c(O)cccc4[C@@](C)(O)[C@H]3C[C@@H]12 [Tetracycline]
zone of inhibition at 12.5 µg/mL (W3110): 22 mm | zone of inhibition at 25 µg/mL (W3110): 23 mm | zone of inhibition at 50 µg/mL (W3110): 23 mm | zone of inhibition at 12.5 µg/mL (JHU-313): 26 mm | zone of inhibition at 25 µg/mL (JHU-313): 32 mm | zone of inhibition at 50 µg/mL (JHU-313): 32 mm | zone of inhibition at 12.5 µg/mL (JHU-313 containing pPhoU [10]): 30 mm | zone of inhibition at 25 µg/mL (JHU-313 containing pPhoU [10]): 32 mm | zone of inhibition at 50 µg/mL (JHU-313 containing pPhoU [10]): 32 mm | zone of inhibition at 12.5 µg/mL [11]: 34 mm | zone of inhibition at 25 µg/mL [11]: 34 mm | zone of inhibition at 50 µg/mL [11]: 34 mm

COc1cc(Cc2cnc(N)nc2N)cc(OC)c1OC [Trimethoprim, trimethoprim]
MBC (wild type strain W3110 [1]; W3110, 16 h): 8 µg/mL (≈ 27.6 µM) | MIC (wild type strain W3110 [1]; W3110, 16 h): 2 µg/mL (≈ 6.89 µM) | MBC (PhoU mutant (JHU-313) [2]): 1 µg/mL (≈ 3.44 µM) | MIC (PhoU mutant (JHU-313) [2]): 0.25 µg/mL (≈ 0.861 µM) | MBC (JHU-313 containing pPhoU [3]): 4 µg/mL (≈ 13.8 µM) | MIC (JHU-313 containing pPhoU [3]): 2 µg/mL (≈ 6.89 µM) | MBC [4]: 1 µg/mL (≈ 3.44 µM) | MIC [4]: 0.5 µg/mL (≈ 1.72 µM) | zone of inhibition at 0.5 µg/mL (W3110): 24 mm | zone of inhibition at 1 µg/mL (W3110): 26 mm | zone of inhibition at 2 µg/mL (W3110): 30 mm | zone of inhibition at 0.5 µg/mL (JHU-313): 31 mm | zone of inhibition at 1 µg/mL (JHU-313): 38 mm | zone of inhibition at 2 µg/mL (JHU-313): 42 mm | zone of inhibition at 0.5 µg/mL (JHU-313 containing pPhoU [10]): 32 mm | zone of inhibition at 1 µg/mL (JHU-313 containing pPhoU [10]): 33 mm | zone of inhibition at 2 µg/mL (JHU-313 containing pPhoU [10]): 36 mm | zone of inhibition at 0.5 µg/mL [11]: 36 mm | zone of inhibition at 1 µg/mL [11]: 40 mm | zone of inhibition at 2 µg/mL [11]: 44 mm
